Assay results as given in ChEMBL document CHEMBL4619777, “A New Class of Dengue and West Nile Virus Protease Inhibitors with Submicromolar Activity in Reporter Gene DENV-2 Protease and Viral Replication Assays” (J Med Chem, 2020).
Residues, ends and D or L forms follow the SMILES beside them. *: point of attachment. Bz = O=C(c1ccccc1)*

Tests used:
Genome polyprotein [1] = target: T1, Genome polyprotein (dengue virus type 2, UniProt P29990); experiment: Inhibition of Dengue virus serotype 2 NS2B-NS3 protease transfected in human HeLa cells measured after 24 hrs by Renilla-luciferase reporter gene assay; type: cell-based
[2] = target: Genome polyprotein (dengue virus type 2) (UniProt P29990); experiment: Inhibition of Dengue virus serotype 2 NS2B-NS3 protease transfected in human HeLa cells at 12.5 uM measured after 24 hrs by Renilla-luciferase reporter gene assay relative to control; type: cell-based
[3] = Cytotoxicity against human HeLa cells assessed as reduction in cell viability measured after 24 hrs by celltiter-blue assay; type: cell-based
Trypsin = Trypsin (Homo sapiens, UniProt P07477+P07478+P35030); experiment: Inhibition of trypsin (unknown origin) at 50 uM using Boc-Val-Pro-Arg-AMC as substrate preincubated for 15 mins followed by substrate addition and measured for 15 mins by fluorimetric assay relative to control; type: protein assay; conditions: 0.25 h, 50 µM
[4] = target: Genome polyprotein (West Nile virus) (UniProt P06935); experiment: Inhibition of West Nile virus NS2B-NS3 protease expressed in Escherichia coli BL21 lambda (DE3) cells at 50 uM using Abz-Gly-Leu-Lys-Arg-Gly-Gly-3-(NO2)Tyr as substrate preincubated for 15 mins followed by substrate addition measured for 15 mins by fluorimetric analysis relative to control
Sequence of Genome polyprotein (West Nile virus) (P06935 whole entry): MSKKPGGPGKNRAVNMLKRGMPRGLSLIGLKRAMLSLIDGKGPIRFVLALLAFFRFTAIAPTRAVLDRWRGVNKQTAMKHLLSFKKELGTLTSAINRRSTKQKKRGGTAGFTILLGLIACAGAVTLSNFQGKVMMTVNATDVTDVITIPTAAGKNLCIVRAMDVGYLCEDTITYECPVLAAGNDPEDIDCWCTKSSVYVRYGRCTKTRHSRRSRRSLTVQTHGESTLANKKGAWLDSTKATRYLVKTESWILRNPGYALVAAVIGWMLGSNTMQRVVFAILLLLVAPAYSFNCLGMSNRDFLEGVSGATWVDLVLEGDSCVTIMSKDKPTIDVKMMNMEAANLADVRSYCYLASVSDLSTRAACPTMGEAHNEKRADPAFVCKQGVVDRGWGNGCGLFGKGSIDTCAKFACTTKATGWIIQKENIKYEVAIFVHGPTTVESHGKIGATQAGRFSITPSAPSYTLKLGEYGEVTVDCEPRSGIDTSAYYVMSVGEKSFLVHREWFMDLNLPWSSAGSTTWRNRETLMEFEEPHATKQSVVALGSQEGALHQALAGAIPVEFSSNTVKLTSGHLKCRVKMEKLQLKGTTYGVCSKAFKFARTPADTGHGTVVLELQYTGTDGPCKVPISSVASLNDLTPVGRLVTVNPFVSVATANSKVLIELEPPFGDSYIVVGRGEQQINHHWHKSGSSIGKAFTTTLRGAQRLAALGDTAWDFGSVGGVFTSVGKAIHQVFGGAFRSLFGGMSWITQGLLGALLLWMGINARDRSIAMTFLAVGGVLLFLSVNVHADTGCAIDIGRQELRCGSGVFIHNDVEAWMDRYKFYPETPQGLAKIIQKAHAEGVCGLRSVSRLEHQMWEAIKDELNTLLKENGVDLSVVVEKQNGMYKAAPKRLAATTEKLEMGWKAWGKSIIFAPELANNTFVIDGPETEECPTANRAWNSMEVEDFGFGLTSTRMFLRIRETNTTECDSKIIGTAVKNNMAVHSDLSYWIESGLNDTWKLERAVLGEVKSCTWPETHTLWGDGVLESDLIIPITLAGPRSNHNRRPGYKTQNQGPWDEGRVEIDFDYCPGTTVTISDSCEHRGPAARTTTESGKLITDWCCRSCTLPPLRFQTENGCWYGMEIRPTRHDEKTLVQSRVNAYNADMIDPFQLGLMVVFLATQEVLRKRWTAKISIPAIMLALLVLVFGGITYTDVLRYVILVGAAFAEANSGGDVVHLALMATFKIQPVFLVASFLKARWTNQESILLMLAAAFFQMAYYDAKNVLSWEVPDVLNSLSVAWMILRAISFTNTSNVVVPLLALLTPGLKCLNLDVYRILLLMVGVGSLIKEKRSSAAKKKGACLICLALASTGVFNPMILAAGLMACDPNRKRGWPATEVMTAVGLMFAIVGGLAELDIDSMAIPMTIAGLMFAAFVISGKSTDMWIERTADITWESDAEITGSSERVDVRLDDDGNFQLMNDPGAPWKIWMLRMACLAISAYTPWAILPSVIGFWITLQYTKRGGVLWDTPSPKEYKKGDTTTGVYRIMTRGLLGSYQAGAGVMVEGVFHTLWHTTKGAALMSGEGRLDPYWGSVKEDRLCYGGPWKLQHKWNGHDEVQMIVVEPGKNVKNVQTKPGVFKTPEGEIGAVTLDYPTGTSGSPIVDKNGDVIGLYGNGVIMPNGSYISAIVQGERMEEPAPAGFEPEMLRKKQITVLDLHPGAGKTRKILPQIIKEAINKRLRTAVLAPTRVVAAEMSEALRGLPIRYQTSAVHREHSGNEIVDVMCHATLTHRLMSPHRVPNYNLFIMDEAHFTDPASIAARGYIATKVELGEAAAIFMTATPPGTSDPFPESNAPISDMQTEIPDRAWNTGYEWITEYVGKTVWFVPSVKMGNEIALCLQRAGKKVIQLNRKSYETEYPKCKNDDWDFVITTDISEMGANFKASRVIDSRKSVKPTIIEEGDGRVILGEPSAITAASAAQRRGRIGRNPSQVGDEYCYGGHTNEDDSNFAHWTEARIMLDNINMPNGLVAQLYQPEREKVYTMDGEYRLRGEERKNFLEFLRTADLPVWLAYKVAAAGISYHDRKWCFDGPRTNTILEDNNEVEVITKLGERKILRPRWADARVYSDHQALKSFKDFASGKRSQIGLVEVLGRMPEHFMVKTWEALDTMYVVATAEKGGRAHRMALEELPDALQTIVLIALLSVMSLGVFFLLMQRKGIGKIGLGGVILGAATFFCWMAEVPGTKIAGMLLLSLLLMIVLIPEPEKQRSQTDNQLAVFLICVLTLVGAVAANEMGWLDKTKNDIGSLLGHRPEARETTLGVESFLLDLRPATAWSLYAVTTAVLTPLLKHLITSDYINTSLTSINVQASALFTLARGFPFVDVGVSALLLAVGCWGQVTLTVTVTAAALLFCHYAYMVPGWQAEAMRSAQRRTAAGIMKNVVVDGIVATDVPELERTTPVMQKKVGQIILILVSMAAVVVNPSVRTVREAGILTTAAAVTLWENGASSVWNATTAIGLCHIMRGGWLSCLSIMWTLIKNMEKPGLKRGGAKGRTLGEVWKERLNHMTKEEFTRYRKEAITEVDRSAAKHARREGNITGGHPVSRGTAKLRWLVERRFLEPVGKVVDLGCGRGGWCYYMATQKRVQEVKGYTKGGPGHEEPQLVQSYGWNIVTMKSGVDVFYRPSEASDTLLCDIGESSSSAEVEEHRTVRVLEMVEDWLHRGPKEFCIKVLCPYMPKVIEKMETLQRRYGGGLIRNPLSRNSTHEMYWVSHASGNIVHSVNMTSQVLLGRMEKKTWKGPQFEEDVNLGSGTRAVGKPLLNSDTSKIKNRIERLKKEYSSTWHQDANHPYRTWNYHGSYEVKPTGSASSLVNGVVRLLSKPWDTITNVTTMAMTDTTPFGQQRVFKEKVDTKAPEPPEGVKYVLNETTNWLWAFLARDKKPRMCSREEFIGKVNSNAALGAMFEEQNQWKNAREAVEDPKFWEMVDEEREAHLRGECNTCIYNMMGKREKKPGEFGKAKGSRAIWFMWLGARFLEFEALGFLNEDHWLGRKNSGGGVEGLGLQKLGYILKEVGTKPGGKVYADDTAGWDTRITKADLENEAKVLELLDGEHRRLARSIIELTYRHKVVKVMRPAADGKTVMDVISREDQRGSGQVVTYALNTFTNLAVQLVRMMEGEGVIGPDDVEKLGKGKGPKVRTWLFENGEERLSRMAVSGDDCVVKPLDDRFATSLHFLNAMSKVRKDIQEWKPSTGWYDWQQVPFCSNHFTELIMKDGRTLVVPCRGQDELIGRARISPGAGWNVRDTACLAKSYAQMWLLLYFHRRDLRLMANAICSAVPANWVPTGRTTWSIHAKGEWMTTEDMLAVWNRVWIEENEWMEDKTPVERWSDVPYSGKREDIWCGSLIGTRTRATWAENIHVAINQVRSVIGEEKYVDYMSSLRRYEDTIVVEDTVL

[5] = target: Genome polyprotein (dengue virus type 2) (UniProt P29990); experiment: Inhibition of Dengue virus serotype 2 NS2B-NS3 protease expressed in Escherichia coli BL21 lambda (DE3) cells at 50 uM using Abz-Nle-Lys-Arg-Arg-Ser-3-(NO2)Tyr as substrate preincubated for 15 mins followed by substrate addition and measured for 15 mins by FRET assay relative to control
Prothrombin = Prothrombin (Homo sapiens, UniProt P00734); experiment: Inhibition of thrombin (unknown origin) at 25 uM using Boc-Val-Pro-Arg-AMC as substrate preincubated for 15 mins followed by substrate addition and measured for 15 mins by fluorimetric assay; conditions: 0.25 h
Genome polyprotein [6] = target: T1, Genome polyprotein; experiment: Inhibition of Dengue virus serotype 2 NS2B-NS3 protease expressed in Escherichia coli BL21 lambda (DE3) cells using Abz-Nle-Lys-Arg-Arg-Ser-3-(NO2)Tyr as substrate preincubated for 15 mins followed by substrate addition and measured for 15 mins by FRET assay
Genome polyprotein [7] = target: Genome polyprotein (West Nile virus, UniProt P06935); experiment: Inhibition of West Nile virus NS2B-NS3 protease expressed in Escherichia coli BL21 lambda (DE3) cells using Abz-Gly-Leu-Lys-Arg-Gly-Gly-3-(NO2)Tyr as substrate preincubated for 15 mins followed by substrate addition measured for 15 mins by fluorimetric analysis
Sequence of Genome polyprotein (West Nile virus, UniProt P06935) (P06935 1371-1501 limits assumed): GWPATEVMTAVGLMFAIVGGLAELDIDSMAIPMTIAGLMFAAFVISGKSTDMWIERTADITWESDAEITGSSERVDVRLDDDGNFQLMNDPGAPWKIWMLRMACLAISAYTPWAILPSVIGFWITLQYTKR
Sequence of Genome polyprotein (West Nile virus, UniProt P06935) (P06935 1502-2120 limits assumed): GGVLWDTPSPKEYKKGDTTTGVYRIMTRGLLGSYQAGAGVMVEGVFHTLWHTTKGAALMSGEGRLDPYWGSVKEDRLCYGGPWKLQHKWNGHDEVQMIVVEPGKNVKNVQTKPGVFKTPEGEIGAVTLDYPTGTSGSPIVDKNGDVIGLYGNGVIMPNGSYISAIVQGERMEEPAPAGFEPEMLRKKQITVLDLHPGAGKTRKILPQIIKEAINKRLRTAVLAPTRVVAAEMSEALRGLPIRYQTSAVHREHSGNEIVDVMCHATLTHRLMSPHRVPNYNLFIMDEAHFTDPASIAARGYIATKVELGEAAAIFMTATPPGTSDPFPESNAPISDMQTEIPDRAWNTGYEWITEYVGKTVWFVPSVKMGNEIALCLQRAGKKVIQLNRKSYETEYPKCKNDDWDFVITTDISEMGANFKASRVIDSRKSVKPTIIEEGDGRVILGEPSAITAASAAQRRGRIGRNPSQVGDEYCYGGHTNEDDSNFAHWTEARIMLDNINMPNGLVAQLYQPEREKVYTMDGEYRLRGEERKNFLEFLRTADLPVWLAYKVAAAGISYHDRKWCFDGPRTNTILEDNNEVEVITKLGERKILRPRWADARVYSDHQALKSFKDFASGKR

SMILES	EC50 (Genome polyprotein [1])	inhibition [2]	CC50 at 24 h [3]	inhibition (INH) (Trypsin)	inhibition [4]	inhibition [5]	inhibition (INH) (Prothrombin)	IC50 (Genome polyprotein [6])	IC50 (Genome polyprotein [7])
CCCCC(=O)N[C@H](C(=O)NCc1ccc(NC(=N)N)cc1)c1ccc(OCc2ccccc2)cc1.O=C(O)C(F)(F)F	2.8 µM	69.4%	> 50 µM	Not Active	11.2%	22%	Not Active		
CCCCCC(=O)N[C@H](C(=O)NCc1cccc(CNC(=N)N)c1)c1ccc(OCc2ccccc2)cc1		47.4%	> 50 µM	Not Active	32.7%	43.8%	Not Active		
CCCCCC(=O)N[C@H](C(=O)NCCN)c1ccc(OCc2ccccc2)cc1		44%	> 50 µM	Not Active	< 10%	< 10%	Not Active		
CC(=O)N[C@H](C(=O)NCc1ccc(NC(=N)N)cc1)c1ccc(OCc2ccccc2)cc1.O=C(O)C(F)(F)F		28.9%	> 50 µM	Not Active	< 10%	< 10%	Not Active		
N=C(N)Nc1ccc(CNC(=O)[C@@H](NC(=O)c2ccccc2-c2ccccc2)c2ccc(OCc3ccccc3)cc2)cc1.O=C(O)C(F)(F)F		30.1%	> 50 µM	Not Active	88.1%	93.3%	Not Active	24 µM	35 µM
CCCCCC(=O)N[C@H](C(=O)Nc1ccc(N)cc1)c1ccc(OCc2ccccc2)cc1.O=C(O)C(F)(F)F		49.5%	> 50 µM	Not Active	10.7%	13.2%	Not Active		
N=C(N)Nc1ccc(CNC(=O)[C@@H](NC(=O)c2ccccc2)c2ccc(OCc3ccccc3)cc2)cc1.O=C(O)C(F)(F)F		10.5%	> 50 µM	Not Active	18.9%	39%	Not Active		
CCCCCC(=O)N[C@H](C(=O)Nc1ccc(NC(=N)N)cc1)c1ccc(OCc2ccccc2)cc1.O=C(O)C(F)(F)F			≥ 12.5 µM	Not Active	53.8%	62.6%	Not Active		
N=C(N)Nc1ccc(CNC(=O)[C@@H](NC(=O)c2ccc(OCc3ccc(Cl)cc3)cc2)c2ccc(OCc3ccccc3)cc2)cc1.O=C(O)C(F)(F)F		44.6%	> 12.5 µM	Not Active	103%	98.7%	Not Active	2.2 µM	2.5 µM
CCCCCC(=O)N[C@H](C(=O)NCc1ccc(N)cc1)c1ccc(OCc2ccccc2)cc1.O=C(O)C(F)(F)F		43%	> 50 µM	Not Active	13.5%	13%	Not Active		
CCCCCC(=O)N[C@H](C(=O)NCc1ccccc1)c1ccc(OCc2ccccc2)cc1		< 10%	> 50 µM	Not Active	< 10%	< 10%	Not Active		
CCCCCC(=O)N[C@H](C(=O)Nc1ccc(CN)cc1)c1ccc(OCc2ccccc2)cc1.O=C(O)C(F)(F)F			< 12.5 µM	Not Active	37.6%	26.5%	Not Active		
N=C(N)NCCC[C@H](NC(=O)c1ccc(/C=C2\SC(=O)N(C3CCC3)C2=O)cc1)C(=O)N[C@@H](CCCCN)C(=O)N[C@H](C(N)=O)c1ccccc1				Not Active			Not Active		
CCCCCC(=O)N[C@H](C(=O)NCc1ccc(NC(=N)N)cc1)c1ccc(OCc2ccc(C#N)cc2)cc1.O=C(O)C(F)(F)F		12.7%	> 50 µM	Not Active	24.8%	74.3%	Not Active	40 µM	
CCCCCC(=O)N[C@H](C(=O)NCc1ccc(NC(N)=O)cc1)c1ccc(OCc2ccccc2)cc1		24%	> 50 µM	Not Active	34.2%	23.1%	Not Active		
N=C(N)NCCC[C@H](NC(=O)[C@H](Cc1ccc(CN)cc1)NC(=O)c1ccccc1)B(O)O				Not Active			Not Active		
CCCCCC(=O)N[C@@H](C(=O)NCc1ccc(CN)cc1)c1ccc(OCc2ccc(Cl)c(Cl)c2)cc1.O=C(O)C(F)(F)F			< 12.5 µM	Not Active	100%	95.2%	Not Active	3.1 µM	11 µM
CCCCCC(=O)N[C@H](C(=O)NCc1ccc(C#N)cc1)c1ccc(OCc2ccccc2)cc1		28.3%	> 50 µM	Not Active	25.6%	< 10%	Not Active		
CCCCCC(=O)N[C@H](C(=O)NCc1ccc(NC(=N)N)cc1)c1ccccc1.O=C(O)C(F)(F)F		18.8%	> 50 µM	Not Active	< 10%	< 10%	Not Active		
CCCCCC(=O)N[C@@H](C(=O)NCc1ccc(NC(=N)N)cc1)c1ccc(OCc2ccc(C(F)(F)F)cc2)cc1.O=C(O)C(F)(F)F		44.6%	> 50 µM	Not Active	102%	96.7%	Not Active	6.6 µM	14 µM
CCCCCC(=O)N[C@H](C(=O)NCc1ccncc1)c1ccc(OCc2ccccc2)cc1		40.6%	> 50 µM	Not Active	< 10%	< 10%	Not Active		
CCCCCC(=O)N[C@H](C(=O)NCc1ccc(NC(=N)N)cc1)c1ccc(OCc2ccc(C(C)(C)C)cc2)cc1.O=C(O)C(F)(F)F		38.7%	> 12.5 µM	Not Active	98.9%	98.1%	Not Active	13 µM	16 µM
N=C(N)NCCC[C@H](NC(=O)c1ccccc1)C(=O)N[C@@H](CCCCN)C(=O)NCC(N)=O (Bz-Arg-Lys-Gly-NH2)		< 10%		Not Active	15.3%	68.6%	Not Active	23 µM	
N=C(N)Nc1ccc(CNC(=O)[C@@H](NC(=O)CC2CCCCC2)c2ccc(OCc3ccccc3)cc2)cc1.O=C(O)C(F)(F)F		41.7%	> 50 µM	Not Active	99.5%	100%	Not Active	9 µM	28 µM
CCCCCC(=O)N[C@H](C(=O)NCc1ccc(NC(=N)N)cc1)c1ccc(OCc2cccc(OC)c2)cc1.O=C(O)C(F)(F)F		26%	> 50 µM	Not Active	15.7%	32.5%	Not Active		
CCCCCC(=O)N[C@H](C(=O)NCc1ccc(NC(=O)CN)cc1)c1ccc(OCc2ccccc2)cc1		10.1%	> 50 µM	Not Active	< 10%	28.2%	Not Active		
CCCCCC(=O)N[C@H](C(=O)N[C@@H](CCCCN)C(N)=O)c1ccc(OCc2ccccc2)cc1		11.1%	> 50 µM	Not Active	< 10%	< 10%	Not Active		
CCCCCC(=O)N[C@H](C(=O)NCc1ccc(C(=O)NN)cc1)c1ccc(OCc2ccccc2)cc1		30.7%	> 50 µM	Not Active	55%	28.3%	Not Active		
CCCCCC(=O)N[C@H](C(=O)NCCCCN)c1ccc(OCc2ccccc2)cc1		45.8%	> 50 µM	Not Active	< 10%	21.3%	Not Active		
